Test results: US20250115577A1, “BCL-2 Inhibitors” (Eil Therapeutics, Inc., priority 2021, published 2025)

Legend:
[1] = biological target: BCL-2 (Homo sapiens (Human), UniProt P10415); test: BCL-2 TR-FRET Assay (primary PPI inhibition); assay type: binding; conditions: 60 min incubation, read-out: BCL2 IC50
Description: Example A. BCL-2 TR-FRET Assay (BPS Bioscience, #50222)
(§1) The following assay concentrations and times were used: 3 ng of BCL-2, 5 μL of 1:100 anti-His Tb-labeled donor, 5 μL of 1:100 Dye-labeled acceptor, 5 µL of 1:40 BCL-2 Peptide Ligand, and 2 μL of 200× test compound, with 60 min incubation time (final concentration of DMSO 0.5%). The results of the assay were read using a plate reader with the following parameters: TR FRET, 340ex/620 and 665em; 60 usec Delay; and 500 usec integration.
(§2) Instrumentation: CLARIOstar Plus (BMG LABTECH); Biomek FX for liquid handling (Beckman Coulter).

[2] = biological target: BCL-xL (Homo sapiens (Human), UniProt Q07817); test: BCL-xL TR-FRET Assay (primary PPI inhibition); assay type: binding; conditions: 60 min incubation, read-out: BCLxL IC50
Description: Example B. BCL-xL TR-FRET Assay (BPS Bioscience, #50223)
as §1, with “used: 10.5” for “used: 3”, “of BCL-xL,” for “of BCL-2,”, “of 1:120” for “of 1:100”, “5 μL” for “5 µL”, “of 1:96 BCL-xL” for “of 1:40 BCL-2”, “Ligand,” for “Ligand, and”
as §2

[3] = test system: RS4-11 cells; test: Cell viability assay (CellTiter-Glo), RS4-11; assay type: cell-based; conditions: Homo sapiens, RS4-11, 72 h, 3 days of incubation
Description: (§3) Example D. Cell Viability Assays (Cell lines HEK293, RS4-11, MOLT-4)
(§4) Cells were seeded at a density of 4000 cells per well in the 384-well clear bottom plate (Greiner Cat #781090) to the 45 μL total volume of either DMEM (PanEco, Cat #C420, for HEK293) or RPMI (PanEco, Cat #C330, for other cell lines) with 10% FBS(HyClone Cat #SV30160.03). Prior to adding compounds, the HEK293 cells were allowed to adhere overnight at 37° C. and 5% CO2. The 500× compounds solutions in DMSO(Sigma Cat #D2650) were dispersed into a 384-well compound plate (Diamond Well Plate, Axigen, Cat #P-384-120 SQ-C—S) including only DMSO control. The 1 μL aliquots of the 500× compounds from the compound plate were added to 49 μL of culture medium in the Dilution plate (Diamond Well Plate, Axigen, Cat #P-384-120 SQ-C—S), mixed and then the 5 μL aliquts of the 10× compound solutions were transferred to cells followed by centrifugation at 100 g for 1 min. Final DMSO concentration was 0.2%. After 3 days of incubation the 10 μL aliquots of CellTiter-Glo (Promega, CAT #G7572) were added to the cells, plate was centrifuged at 100 g for 1 min and the luminescence was measured on the CLARIOstar Plus (BMG LABTECH) instrument.
as §2

[4] = Cell viability assay (CellTiter-Glo), HEK293; assay type: cell-based; conditions: human, HEK293 cells, 3 days of incubation
Description: as §3, §4, §2

[5] = test system: MOLT-4 cells; test: Cell viability assay (CellTiter-Glo), MOLT-4; assay type: cell-based; conditions: Homo sapiens, 72 h, 3 days of incubation
Description: as §3, §4, §2

[6] = test system: caspase-3 and -7 activities in RS4-11 cells; test: Caspase-3/7 activation (Caspase-Glo 3/7) in RS4-11 cells; assay type: cell-based; conditions: Homo sapiens, 3.5 h, read-out: Cas-3/7 EC50
Description: Example E. Caspase-3/7 Activation
Assay Principle: The Caspase-Glo 3/7 Assay is homogeneous, luminescent assay that measures caspase-3 and -7 activities. The assay provides a luminogenic caspase-3/7 substrate, which contains the tetrapeptide sequence DEVD, in a reagent optimized for caspase activity.
Assay Procedure: Incubate RS4-11 (ATCC, CRL-1873) cells in the 384-well white plate (Corning, #3570) with varying concentrations of test compounds for 3.5 h in a humidified incubator at 37° C. and 5% CO2 […]. Add 15 μL of the Caspase-Glo (Promega, #8212) reagent to each well and to incubate the plate for 30 min at rt. Read on the CLARIOstar Plus (BMG LABTECH) instrument.
as §2

Chain of BCL-xL (Q07817 whole entry): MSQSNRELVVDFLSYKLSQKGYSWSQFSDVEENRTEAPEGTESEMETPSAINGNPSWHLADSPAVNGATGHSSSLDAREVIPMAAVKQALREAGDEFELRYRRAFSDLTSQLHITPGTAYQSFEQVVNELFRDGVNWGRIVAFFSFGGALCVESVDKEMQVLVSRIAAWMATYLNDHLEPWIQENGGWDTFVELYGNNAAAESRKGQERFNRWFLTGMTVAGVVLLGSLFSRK
Chain of BCL-2 (P10415 whole entry): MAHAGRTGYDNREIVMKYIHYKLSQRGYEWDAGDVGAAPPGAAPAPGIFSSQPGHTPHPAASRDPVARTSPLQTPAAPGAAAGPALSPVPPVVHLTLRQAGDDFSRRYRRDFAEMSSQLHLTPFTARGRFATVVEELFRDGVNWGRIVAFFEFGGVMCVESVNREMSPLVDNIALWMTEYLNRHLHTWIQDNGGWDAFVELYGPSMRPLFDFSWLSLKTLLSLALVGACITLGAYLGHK

COc1cc(-c2cc(C(=O)N(Cc3ccccc3OC)c3ccc(Cl)cc3)c(C)n2C)c(C(=O)N2Cc3ccccc3C[C@H]2CN2CCOCC2)cc1C#N [Compound 56, N-(4-chlorophenyl)-5-[4-cyano-5-methoxy-2-[(3S)-3-(morpholinomethyl)-3,4-dihydro-1H-isoquinoline-2-carbonyl]phenyl]-N-[(2-methoxyphenyl)methyl]-1,2-dimethyl-pyrrole-3-carboxamide]
IC50 [1]: > 50 nM | IC50 [2]: 2 to 5 µM | CC50 [3]: > 200 nM | CC50 at 3 days [4]: ≤ 10 µM | CC50 [5]: ≤ 5 µM | EC50 [6]: > 500 nM

COc1ccccc1CN(C(=O)c1cc(-c2cc(Cl)ccc2C(=O)N2Cc3ccccc3C[C@H]2CN2CCOCC2)n(C)c1C)c1ccc2[nH]ncc2c1 [Compound 69, 5-[5-chloro-2-[(3S)-3-(morpholinomethyl)-3,4-dihydro-1H-isoquinoline-2-carbonyl]phenyl]-N-(1H-indazol-5-yl)-N-[(2-methoxyphenyl)methyl]-1,2-dimethyl-pyrrole-3-carboxamide]
IC50 [1]: 10 to 50 nM | IC50 [2]: > 5 µM | CC50 [3]: > 200 nM | CC50 at 3 days [4]: > 25 µM | CC50 [5]: > 10 µM | EC50 [6]: > 500 nM

COc1ccccc1CN(C(=O)c1cc(-c2cc(C#N)ccc2C(=O)N2Cc3ccccc3C[C@H]2CN2CCOCC2)n(C)c1C)c1ccc(O)cc1 [Compound 55, 5-[5-cyano-2-[(3S)-3-(morpholinomethyl)-3,4-dihydro-1H-isoquinoline-2-carbonyl]phenyl]-N-(4-hydroxyphenyl)-N-[(2-methoxyphenyl)methyl]-1,2-dimethyl-pyrrole-3-carboxamide]
IC50 [1]: 5 to 10 nM | IC50 [2]: ≤ 2 µM | CC50 [3]: 100 to 200 nM | CC50 at 3 days [4]: > 25 µM | CC50 [5]: ≤ 5 µM | EC50 [6]: 200 to 500 nM

COc1cccc(CN(C(=O)c2cc(-c3cc(C(F)F)c(Cl)cc3C(=O)N3Cc4ccccc4C[C@H]3CN3CCOCC3)n(C)c2C)c2ccc(Cl)cc2)c1C [Compound 39, 5-[4-chloro-5-(difluoromethyl)-2-[(3S)-3-(morpholinomethyl)-3,4-dihydro-1H-isoquinoline-2-carbonyl]phenyl]-N-(4-chlorophenyl)-N-[(3-methoxy-2-methyl-phenyl)methyl]-1,2-dimethyl-pyrrole-3-carboxamide]
IC50 [1]: > 50 nM | IC50 [2]: 2 to 5 µM | CC50 [3]: > 200 nM | CC50 at 3 days [4]: > 25 µM | CC50 [5]: ≤ 5 µM | EC50 [6]: > 500 nM

COc1cccc(CN(C(=O)c2cc(-c3cc(C(F)F)c(Cl)cc3C(=O)N3Cc4ccccc4C[C@H]3CN3CCOCC3)n(C)c2C)c2ccc(C#N)cc2)c1C [Compound 24, 5-[4-chloro-5-(difluoromethyl)-2-[(3S)-3-(morpholinomethyl)-3,4-dihydro-1H-isoquinoline-2-carbonyl]phenyl]-N-(4-cyanophenyl)-N-[(3-methoxy-2-methyl-phenyl)methyl]-1,2-dimethyl-pyrrole-3-carboxamide]
IC50 [1]: > 50 nM | IC50 [2]: 2 to 5 µM | CC50 [3]: > 200 nM | CC50 at 3 days [4]: > 25 µM | CC50 [5]: > 10 µM | EC50 [6]: > 500 nM

COc1cccc(CN(C(=O)c2cc(-c3cc(Cl)c(F)cc3C(=O)N3Cc4ccccc4C[C@H]3CN3CCOCC3)n(C)c2C)c2ccc(O)cc2)c1C [Compound 27, 5-[5-chloro-4-fluoro-2-[(3S)-3-(morpholinomethyl)-3,4-dihydro-1H-isoquinoline-2-carbonyl]phenyl]-N-(4-hydroxyphenyl)-N-[(3-methoxy-2-methyl-phenyl)methyl]-1,2-dimethyl-pyrrole-3-carboxamide]
IC50 [1]: 10 to 50 nM | IC50 [2]: 2 to 5 µM | CC50 [3]: 100 to 200 nM | CC50 at 3 days [4]: > 25 µM | CC50 [5]: ≤ 5 µM | EC50 [6]: 200 to 500 nM

Cc1c(C(=O)N(Cc2ccccc2C#N)c2ccc(O)cc2)cc(-c2cc([N+](=O)[O-])ccc2C(=O)N2Cc3ccccc3C[C@H]2CN2CCOCC2)n1C [Compound 62, N-[(2-cyanophenyl)methyl]-N-(4-hydroxyphenyl)-1,2-dimethyl-5-[2-[(3S)-3-(morpholinomethyl)-3,4-dihydro-1H-isoquinoline-2-carbonyl]-5-nitro-phenyl]pyrrole-3-carboxamide]
IC50 [1]: ≤ 5 nM | IC50 [2]: > 5 µM | CC50 [3]: ≤ 100 nM | CC50 at 3 days [4]: > 25 µM | CC50 [5]: ≤ 5 µM | EC50 [6]: ≤ 200 nM

Cc1c(C(=O)N(Cc2ccccc2C#N)c2ccc(O)cc2)cc(-c2cc(F)c(F)cc2C(=O)N2Cc3ccccc3C[C@H]2CN2CCOCC2)n1C [Compound 53, N-[(2-cyanophenyl)methyl]-5-[4,5-difluoro-2-[(3S)-3-(morpholinomethyl)-3,4-dihydro-1H-isoquinoline-2-carbonyl]phenyl]-N-(4-hydroxyphenyl)-1,2-dimethyl-pyrrole-3-carboxamide]
IC50 [1]: 10 to 50 nM | IC50 [2]: 2 to 5 µM | CC50 [3]: 100 to 200 nM | CC50 at 3 days [4]: > 25 µM | CC50 [5]: 5 to 10 µM | EC50 [6]: 200 to 500 nM

COc1cccc(CN(C(=O)c2cc(-c3cc(F)c(OC(F)F)cc3C(=O)N3Cc4ccccc4C[C@H]3CN3CCOCC3)n(C)c2C)c2ccc(Cl)cc2)c1C [Compound 26, N-(4-chlorophenyl)-5-[4-(difluoromethoxy)-5-fluoro-2-[(3S)-3-(morpholinomethyl)-3,4-dihydro-1H-isoquinoline-2-carbonyl]phenyl]-N-[(3-methoxy-2-methyl-phenyl)methyl]-1,2-dimethyl-pyrrole-3-carboxamide]
IC50 [1]: > 50 nM | IC50 [2]: 2 to 5 µM | CC50 [3]: > 200 nM | CC50 at 3 days [4]: > 25 µM | CC50 [5]: ≤ 5 µM | EC50 [6]: > 500 nM

COc1cccc(CN(C(=O)c2cc(-c3cc(C(N)=O)ccc3C(=O)N3Cc4ccccc4C[C@H]3CN3CCOCC3)n(C)c2C)c2ccc(O)cc2)c1C [Compound 64, 5-[5-carbamoyl-2-[(3S)-3-(morpholinomethyl)-3,4-dihydro-1H-isoquinoline-2-carbonyl]phenyl]-N-(4-hydroxyphenyl)-N-[(3-methoxy-2-methyl-phenyl)methyl]-1,2-dimethyl-pyrrole-3-carboxamide]
IC50 [1]: ≤ 5 nM | IC50 [2]: > 5 µM | CC50 [3]: ≤ 100 nM | CC50 at 3 days [4]: > 25 µM | CC50 [5]: > 10 µM | EC50 [6]: > 500 nM

COc1cccc(CN(C(=O)c2cc(-c3cc(C#N)ccc3C(=O)N3Cc4ccccc4C[C@H]3CN3CCOCC3)n(C)c2C)c2ccc(O)cc2)c1C [Compound 57, 5-[5-cyano-2-[(3S)-3-(morpholinomethyl)-3,4-dihydro-1H-isoquinoline-2-carbonyl]phenyl]-N-(4-hydroxyphenyl)-N-[(3-methoxy-2-methyl-phenyl)methyl]-1,2-dimethyl-pyrrole-3-carboxamide]
IC50 [1]: 5 to 10 nM | IC50 [2]: 2 to 5 µM | CC50 [3]: ≤ 100 nM | CC50 at 3 days [4]: > 25 µM | CC50 [5]: ≤ 5 µM | EC50 [6]: ≤ 200 nM
